Experimental data: patent US20220017516A1, “LOX INHIBITORS” (THE INSTITUTE OF CANCER RESEARCH: ROYAL CANCER HOSPITAL, priority 2018, published 2022)
Changes are numbered by the printed parent chain.

Legend:
LOX [1] = biological target: T1, LOX (Sus scrofa, UniProt P45845); assay: LOX isoform activity assay (ROS Glo), LOX; format: biochemical, pig; details: 1 h incubation with enzyme
T1 construct: LOX was extracted from pig skin by previously described methods; from tissue; host or cells: pig skin
T1 sequence (P45845 1-249): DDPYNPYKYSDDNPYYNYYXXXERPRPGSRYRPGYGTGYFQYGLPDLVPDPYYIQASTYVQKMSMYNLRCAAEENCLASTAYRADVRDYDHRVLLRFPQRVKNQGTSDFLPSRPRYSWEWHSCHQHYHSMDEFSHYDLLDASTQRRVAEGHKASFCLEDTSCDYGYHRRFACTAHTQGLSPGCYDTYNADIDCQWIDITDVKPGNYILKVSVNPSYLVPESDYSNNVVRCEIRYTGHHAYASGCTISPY
Experimental: (§1) LOX was extracted from pig skin by previously described methods (Shackleton and Hulmes, 1990). LOXL2 and LOXL3 were obtained from R&D Systems/Bio-techne. The Promega ROS Glo assay kit (G8821) was used to assess enzyme activity. Overall, test compound was added to either 384 well assay plates (Greiner) using a Labcyte Echo™ Acoustic Handler or to 96 well plates for a final assay concentration of 100, 30, 10, 3, 1, 0.3, 0.1, 0.03, 0.01 and 0.003 μM final assay concentration. Enzymes were diluted according to specific pre-determined activity in assay buffer (100 mM CHES, pH 9, 0.05% (w/v) pluronic F-127, 0.5% (w/v) BSA, 1 mM MgCl2, 1 M urea, 100 mM NaCl) and added to the plate. For LOXL2, the mixture was incubated for 20 min, 1 h or 20 h; for LOX and LOXL3, incubation time was 1 h. Cadaverine and H2O2 substrate were then added to each well (final assay concentration 19.56 mM and 25 μM respectively) and the plates were incubated for 1.5 h (for LOX) or 1 h (for LOXL2 and LOXL3) at room temperature. Finally, luciferin detection reagent was added and plates were incubated for 20 min at room temperature, protected from light. Luminescence was measured using a BMG LABTECH PHERAstar FS reader and resulting IC50 values were calculated using GraphPad Prism software.

LOXL2 = biological target: T2, LOXL2 (Homo sapiens, UniProt Q9Y4K0); assay: LOX isoform activity assay (ROS Glo), LOXL2; format: biochemical; details: 1 hr incubation with enzyme; read-out: LOXL2 IC50 b) 1 hr
T2 construct: purchased R&D Systems/Bio-techne
T2 sequence (Q9Y4K0 26-774): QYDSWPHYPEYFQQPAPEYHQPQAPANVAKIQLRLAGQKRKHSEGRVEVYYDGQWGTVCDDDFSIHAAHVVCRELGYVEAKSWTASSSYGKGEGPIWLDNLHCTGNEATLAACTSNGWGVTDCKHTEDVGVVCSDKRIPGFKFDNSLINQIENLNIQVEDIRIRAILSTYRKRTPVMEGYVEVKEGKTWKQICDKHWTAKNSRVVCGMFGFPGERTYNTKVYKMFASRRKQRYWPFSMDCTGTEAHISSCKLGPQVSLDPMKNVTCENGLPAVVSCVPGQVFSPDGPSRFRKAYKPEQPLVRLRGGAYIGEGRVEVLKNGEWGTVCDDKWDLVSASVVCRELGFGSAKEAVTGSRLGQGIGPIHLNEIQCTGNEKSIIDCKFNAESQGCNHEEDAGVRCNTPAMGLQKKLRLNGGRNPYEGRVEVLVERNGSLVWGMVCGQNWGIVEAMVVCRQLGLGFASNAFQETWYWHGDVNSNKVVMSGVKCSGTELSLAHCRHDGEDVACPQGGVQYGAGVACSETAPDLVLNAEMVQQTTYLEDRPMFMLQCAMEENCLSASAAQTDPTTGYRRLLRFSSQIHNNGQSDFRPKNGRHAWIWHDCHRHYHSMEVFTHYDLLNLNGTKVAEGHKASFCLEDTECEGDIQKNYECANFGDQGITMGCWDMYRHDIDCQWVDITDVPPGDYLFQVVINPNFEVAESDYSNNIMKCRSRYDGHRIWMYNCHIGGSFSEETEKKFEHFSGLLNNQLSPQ
Experimental: as §1
In another setting, LOXL2 enzyme was diluted according to specific pre-determined activity in assay buffer (100 mM CHES, pH 9, 0.05% (w/v) pluronic F-127, 0.5% (w/v) BSA, 1 mM MgCl2, 1 M urea, 100 mM NaCl). Overall, 0.5 μl test compound was added to 40 μl assay buffer+LOXL2 at 100, 30, 10, 3, 1, 0.3, 0.1, 0.03, 0.01 and 0.003 μM (final concentration) in a 96-well white polystyrene, flat bottom plates (Fisher) and incubated for the indicated time at room temperature. 10 μl of assay buffer containing 97.8 mM cadaverine and 125 μM H2O2 substrate (final assay concentration 19.56 mM and 25 μM respectively) were added to each well and plates were incubated for 1 h at room temperature. Finally, 50 μl per well luciferin detection reagent was added and plates were incubated for 20 min at room temperature, protected from light. Luminescence was measured with an integration time of 500 ms per well using a SpectaMax M5 plate reader and resulting IC50 values were calculated using GraphPad Prism software.

LOXL3 = biological target: T3, LOXL3 (Homo sapiens, UniProt P58215); assay: LOX isoform activity assay (ROS Glo), LOXL3; format: biochemical; details: 1 h incubation with enzyme
T3 construct: purchased R&D Systems/Bio-techne
T3 sequence (P58215 26-753): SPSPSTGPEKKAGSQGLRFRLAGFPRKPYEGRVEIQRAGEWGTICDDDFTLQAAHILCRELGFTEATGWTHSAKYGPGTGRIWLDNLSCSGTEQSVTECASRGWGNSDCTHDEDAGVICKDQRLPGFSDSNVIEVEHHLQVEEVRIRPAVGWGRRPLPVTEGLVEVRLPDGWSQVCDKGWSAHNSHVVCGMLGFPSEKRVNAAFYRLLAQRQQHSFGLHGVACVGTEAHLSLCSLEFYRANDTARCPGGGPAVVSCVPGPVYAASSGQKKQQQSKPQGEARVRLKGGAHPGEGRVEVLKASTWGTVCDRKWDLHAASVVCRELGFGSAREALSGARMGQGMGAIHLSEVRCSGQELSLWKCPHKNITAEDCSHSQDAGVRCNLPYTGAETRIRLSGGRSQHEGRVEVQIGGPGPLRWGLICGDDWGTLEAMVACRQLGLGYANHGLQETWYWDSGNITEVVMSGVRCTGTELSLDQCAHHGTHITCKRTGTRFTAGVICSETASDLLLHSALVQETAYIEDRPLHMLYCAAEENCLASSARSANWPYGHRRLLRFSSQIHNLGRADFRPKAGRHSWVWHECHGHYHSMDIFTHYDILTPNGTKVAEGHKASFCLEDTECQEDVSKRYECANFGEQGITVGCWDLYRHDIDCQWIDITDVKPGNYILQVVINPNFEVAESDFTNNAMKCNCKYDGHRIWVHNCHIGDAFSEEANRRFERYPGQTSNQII
Experimental: as §1

LOX [2] = biological target: T4, LOX (Mus musculus, UniProt P28301); assay: LOX activity in cysts assay (roGFP2 LOX biosensor in MDCK cysts); format: cell-based; details: LOX, read-out: Cyst LOX @ 10 uM (% inhibition)
T4 construct: Full length LOX cDNA was then PCR cloned into pEGFP-N1 (Clonetech), or biosensor vector proGFP2—N1; expressed in transfected cells; host or cells: MDCK cells grown as cysts on Matrigel
T4 sequence (P28301 163-411): T1 sequence (P45845 1-249) with X20D, X21T, X22Y, Y31N, T80S, S142N, N188A, K202Q, S224T, E231D
Experimental: All cell lines used in this study were purchased from American Type Culture Collection (ATCC). Mycoplasma contamination was routinely monitored by PCR. Cells used were not found to be Mycoplasma positive. MDCK cell lines were cultured in Dulbecco's Modified Eagle Medium (DMEM) supplemented with 10% fetal bovine serum (FBS) and 1% Penicillin Streptomycin solution (Pen Strep). For GFP constructs transfection in MDCK cells, lipofectamine 3000 was used according to manufactures protocols. Cells were either selected with G418 (Life Technologies) at 5 mg/ml. All cell culture reagents were purchased from Life Technologies.
To produce MDCK cysts, cells were cultured on Matrigel (Corning) with 2% Matrigel supplemented in DMEM with 10% FBS. Cysts were allowed to form for 10 days before subsequent studies.
Mouse LOX cDNA was purchased from OriGene. Full length LOX cDNA was then PCR cloned into pEGFP-N1 (Clonetech), or biosensor vector proGFP2—N1 (Hanson, 2004) using the following primers, […] (forward primer) and […] (reverse primer). For the insertion into pEGFP-N1 or proGFP2—N1, Nhel and Xhol restriction sites were added to forward and reverse primers accordingly. Mutant LOX constructs were made using QuickChange II site-directed mutagenesis kit (Agilent Technologies) following manufacture's protocol using LOX-GFP as template. To generate, roGFP2 versions of LOX mutant constructs, LOX mutant cDNA was transferred from pEGFP-N1 to proGFP2—N1 using Nhel and Xhol.
All photomicrographs were taken with a Leica TCS SP8 X confocal system. For LOX biosensor imaging, live MDCK cysts were used. The oxidised biosensor was excited using a 405 nm laser, while the reduced biosensor was excited with a 488 nm laser. Emission of the biosensor was recorded at 500 nm-530 nm range using sequential scans. Ratio images were generated following a published protocol {Kardash, 2011 #376}. Note, while the published protocol generates YFP/CFP ratio images, we used it to generate Oxidised/Reduced (roGFP2 ratio) ratio images. The roGFP2 ratio at the basal surface of MDCK cysts was used to indicate LOX inhibition. LOX inhibitors were added 30 min prior to imaging.
For clarity, readout for DMSO treated cysts represents 0% inhibition (no inhibition) and readout for BAPN at 1 mM is used as 100% inhibition (full inhibition).

Row | IC50 (LOX [1]) | IC50 (LOXL2) | IC50 (LOXL3) | Compound | inhibition at 10 µM (LOX [2])
1 | 0.66 µM | 0.15 µM | 0.22 µM | NCCS(=O)(=O)C(F)C(=O)N1C[C@@H]2CN(c3ccc(Br)cc3)C[C@@H]2C1 (stereo partly drawn) [Example 19, 2-((2-Aminoethyl)-sulfonyl)-2-fluoro-1-(cis-5-(4-bromo-phenyl)hexahydro-pyrrolo[3,4-c]pyrrol-2(1H)-yl)ethan-1-one] | 
2 | 2.3 µM | 0.23 µM | 0.44 µM | NCCS(=O)(=O)C(F)C(=O)N1C[C@@H]2CN(c3ccc(F)cc3)C[C@@H]2C1 (mixture of isomers) [Example 18] | 
3 | 2.4 µM | 0.24 µM | 0.34 µM | NCCS(=O)(=O)C(F)C(=O)N1C[C@@H]2CN(c3c(F)c(F)c(F)c(F)c3F)C[C@@H]2C1 (stereo partly drawn) [Example 20, 2-((2-aminoethyl)-sulfonyl)-2-fluoro-1-(cis-5-(perfluoro-phenyl)hexahydro-pyrrolo[3,4-c]pyrrol-2(1H)-yl)ethan-1-one] | 

Row | Compound | IC50 (LOX [1]) | IC50 (LOXL2) | IC50 (LOXL3) | inhibition at 10 µM (LOX [2])
4 | CCOc1ccc(N2C[C@H]3CN(C(=O)Nc4ccc(S(=O)(=O)CCN)cc4)C[C@@H]2C(C)(C)C3)cc1 [Example 37, (1S,5S)—N-(4-((2-aminoethyl)sulfonyl)phenyl)-6-(4-ethoxyphenyl)-9,9-dimethyl-3,6-diazabicyclo[3.2.2]nonane-3-carboxamide] | 26 µM | 20 µM |  | 78%
